Reference: ChEMBL document CHEMBL4613325, “Design of Development Candidate eFT226, a First in Class Inhibitor of Eukaryotic Initiation Factor 4A RNA Helicase” (J Med Chem, 2020)

Key:
[1] = tested on: MDA-MB-231; assay: Antiproliferative activity against human MDA-MB-231 cells assessed as reduction in cell proliferation incubated for 72 hrs by CellTiter-Glo reagent based assay; assay type: functional; details: MDA-MB-231, 72 h
[2] = Clearance in iv dosed rat; assay type: ADME, organism-based; details: in vivo
[3] = Half life in iv dosed rat; assay type: ADME, organism-based; details: in vivo
[4] = AUC in iv dosed rat; assay type: ADME, organism-based; details: in vivo
[5] = Volume of distribution at steady state in iv dosed rat; assay type: ADME, organism-based; details: in vivo, read-out: Vdss
[6] = Efflux ratio in human Caco2 cells at 10 uM by LC/MS/MS analysis; details: Caco-2
[7] = Apparent permeability from apical to basolateral side in human Caco2 cells at 10 uM by LC/MS/MS analysis; details: Caco-2
[8] = physchem
[9] = Half life in mouse at 1 mg, iv administered as single dose measured after 0.083 to 24 hrs by LC-MS analysis; assay type: ADME, organism-based; details: in vivo
[10] = Protein binding in monkey plasma; assay type: ADME, cell-free, Macaca mulatta; details: rhesus monkey, read-out: PPB (converted)
[11] = Volume of distribution at steady state in mouse at 1 mg, iv administered as single dose measured after 0.083 to 24 hrs by LC-MS analysis; assay type: ADME, organism-based; details: in vivo, read-out: Vdss
[12] = target: T1, Eukaryotic initiation factor 4A-I (Homo sapiens, UniProt P60842); assay: Inhibition of eIF4A1 in human MDA-MB-231 cells assessed as inhibition of cellular-translation incubated for 4 hrs by specific tandem sequence motif repeat CAACAA in 5'- UTR containing luciferase reporter gene assay; assay type: cell-based
T1 sequence (P60842 whole entry): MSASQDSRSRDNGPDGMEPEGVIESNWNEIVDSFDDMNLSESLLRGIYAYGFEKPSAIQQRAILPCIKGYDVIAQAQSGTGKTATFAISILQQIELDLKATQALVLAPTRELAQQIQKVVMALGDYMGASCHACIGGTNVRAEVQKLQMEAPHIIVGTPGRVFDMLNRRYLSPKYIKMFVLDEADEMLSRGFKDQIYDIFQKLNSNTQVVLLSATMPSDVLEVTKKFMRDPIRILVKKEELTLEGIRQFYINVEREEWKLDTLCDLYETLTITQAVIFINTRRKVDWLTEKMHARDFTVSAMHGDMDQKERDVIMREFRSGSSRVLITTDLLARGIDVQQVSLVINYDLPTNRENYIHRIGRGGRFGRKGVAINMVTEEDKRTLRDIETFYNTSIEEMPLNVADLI

[13] = target: Voltage-gated inwardly rectifying potassium channel KCNH2 (Homo sapiens, UniProt Q12809); assay: Inhibition of human ERG by patch-clamp assay
Voltage-gated inwardly rectifying potassium channel KCNH2, sequence (Q12809 whole entry): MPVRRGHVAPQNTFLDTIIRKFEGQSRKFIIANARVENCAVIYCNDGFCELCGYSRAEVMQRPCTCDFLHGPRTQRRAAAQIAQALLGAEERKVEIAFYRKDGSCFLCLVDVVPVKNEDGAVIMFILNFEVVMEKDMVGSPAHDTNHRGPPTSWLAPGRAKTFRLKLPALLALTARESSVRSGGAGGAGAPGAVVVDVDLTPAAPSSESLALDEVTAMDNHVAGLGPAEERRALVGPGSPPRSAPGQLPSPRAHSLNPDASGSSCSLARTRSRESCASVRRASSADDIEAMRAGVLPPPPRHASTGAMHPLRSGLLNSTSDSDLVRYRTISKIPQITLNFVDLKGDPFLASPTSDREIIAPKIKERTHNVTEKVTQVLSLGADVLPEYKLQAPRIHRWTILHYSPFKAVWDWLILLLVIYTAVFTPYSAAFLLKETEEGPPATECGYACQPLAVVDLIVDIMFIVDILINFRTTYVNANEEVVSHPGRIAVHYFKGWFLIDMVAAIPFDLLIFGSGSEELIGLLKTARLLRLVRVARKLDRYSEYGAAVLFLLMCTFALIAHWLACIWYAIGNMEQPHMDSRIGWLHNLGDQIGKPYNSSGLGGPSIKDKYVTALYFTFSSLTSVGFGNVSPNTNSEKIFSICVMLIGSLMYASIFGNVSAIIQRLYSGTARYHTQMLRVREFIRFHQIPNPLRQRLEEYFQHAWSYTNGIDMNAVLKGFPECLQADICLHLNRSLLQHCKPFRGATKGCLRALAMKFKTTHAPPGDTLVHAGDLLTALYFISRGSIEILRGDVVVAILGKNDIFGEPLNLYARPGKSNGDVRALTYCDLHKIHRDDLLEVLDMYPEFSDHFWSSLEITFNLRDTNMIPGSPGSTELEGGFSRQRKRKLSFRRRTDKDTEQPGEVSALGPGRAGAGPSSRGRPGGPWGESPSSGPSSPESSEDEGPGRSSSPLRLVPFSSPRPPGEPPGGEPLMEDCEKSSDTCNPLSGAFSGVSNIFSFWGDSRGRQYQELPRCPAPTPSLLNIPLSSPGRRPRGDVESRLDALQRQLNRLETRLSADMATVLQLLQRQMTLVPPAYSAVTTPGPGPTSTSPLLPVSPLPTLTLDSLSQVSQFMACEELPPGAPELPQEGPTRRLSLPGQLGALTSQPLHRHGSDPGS

[14] = target: T1, Eukaryotic initiation factor 4A-I; assay: Inhibition of eIF4A1 in human MDA-MB-231 cells assessed as inhibition of cellular-translation incubated for 4 hrs by specific tandem sequence motif repeat GGCGGC in 5'- UTR containing luciferase reporter gene assay; assay type: cell-based
[15] = Protein binding in mouse plasma; assay type: ADME, cell-free; details: read-out: PPB (converted)
[16] = Protein binding in human plasma; assay type: ADME, cell-free; details: read-out: PPB (converted)
[17] = Inhibition of eIF4A1 F163L mutant in human HAP1 cells assessed as reduction in cell proliferation incubated for 72 hrs by CellTiter-Glo reagent based assay; details: HAP1, 72 h
[18] = Protein binding in rat plasma; assay type: ADME, cell-free; details: read-out: PPB (converted)
[19] = tested on: MDA-MB-231; assay: Effect on GADPH protein expression in human MDA-MB-231 cells 10 to 100 nM incubated for 24 hrs by Western blot analysis; assay type: ADME, cell-based; details: mda-mb-231, 24 h
[20] = Clearance in dog at 1 mg, iv administered as single dose measured after 0.083 to 24 hrs by LC-MS analysis; assay type: ADME, organism-based, Canis lupus familiaris; details: in vivo
[21] = target: T1, Eukaryotic initiation factor 4A-I; assay: Inhibition of eIF4A1 in human MDA-MB-231 cells assessed as inhibition of cellular-translation incubated for 4 hrs by specific tandem sequence motif repeat CCGCCG in 5'- UTR containing luciferase reporter gene assay; assay type: cell-based
[22] = Toxicity in athymic nude ((NCr) nu/nu mouse xenografted with human MDA-MB-231 cells assessed as induction of body weight loss at 1 mg/kg, iv treated once weekly for 2 weeks relative to control; assay type: organism-based; details: in vivo, 336 h
[23] = target: T1, Eukaryotic initiation factor 4A-I; assay: Inhibition of eIF4A1 in human MDA-MB-231 cells assessed as inhibition of cellular-translation incubated for 4 hrs by specific tandem sequence motif repeat AGAGAG in 5'- UTR containing luciferase reporter gene assay; assay type: cell-based
[24] = Clearance in mouse at 1 mg, iv administered as single dose measured after 0.083 to 24 hrs by LC-MS analysis; assay type: ADME, organism-based; details: in vivo
[25] = Half life in Sprague-Dawley rat at 1 mg, iv administered as single dose measured after 0.083 to 24 hrs by LC-MS analysis; assay type: ADME, organism-based; details: in vivo
[26] = Clearance in Sprague-Dawley rat at 1 mg, iv administered as single dose measured after 0.083 to 24 hrs by LC-MS analysis; assay type: ADME, organism-based; details: in vivo
[27] = Volume of distribution at steady state in dog at 1 mg, iv administered as single dose measured after 0.083 to 24 hrs by LC-MS analysis; assay type: ADME, organism-based, Canis lupus familiaris; details: in vivo, read-out: Vdss
[28] = Half life in monkey at 1 mg, iv administered as single dose measured after 0.083 to 24 hrs by LC-MS analysis; assay type: ADME, organism-based, Macaca mulatta; details: rhesus monkey, in vivo
[29] = tested on: MDA-MB-231; assay: Antitumor activity against human MDA-MB-231 cells xenografted in athymic nude ((NCr) nu/nu mouse assessed as inhibition of tumor growth at 1 mg/kg, iv treated once weekly for 2 weeks relative to control; assay type: functional; details: MDA-MB-231, iv, 336 h
[30] = Clearance in monkey at 1 mg, iv administered as single dose measured after 0.083 to 24 hrs by LC-MS analysis; assay type: ADME, organism-based, Macaca mulatta; details: rhesus monkey, in vivo
[31] = Volume of distribution at steady state in monkey at 1 mg, iv administered as single dose measured after 0.083 to 24 hrs by LC-MS analysis; assay type: ADME, organism-based, Macaca mulatta; details: rhesus monkey, in vivo, read-out: Vdss
[32] = Protein binding in dog plasma; assay type: ADME, cell-free, Canis lupus familiaris; details: read-out: PPB (converted)
[33] = Volume of distribution at steady state in Sprague-Dawley rat at 1 mg, iv administered as single dose measured after 0.083 to 24 hrs by LC-MS analysis; assay type: ADME, organism-based; details: in vivo, read-out: Vdss

COc1nc(C#N)cc2c1[C@]1(O)[C@H](O)[C@H](CN(C)C)[C@@H](c3ccccc3)[C@]1(c1ccc(C#N)cc1)O2
IC50 [1]: 0.015 µM
clearance [2]: 1.56 L/h/kg
half-life [3]: 11 h
AUC [4]: 0.73 µg·h/mL
Vd [5]: 10.3 L/kg

COc1cncc2c1[C@]1(O)[C@H](O)[C@H](C(=O)N(C)C)[C@@H](c3ccccc3)[C@]1(c1ccc(C#N)cc1)O2
IC50 [1]: 0.033 µM
clearance [2]: 1.08 L/h/kg
half-life [3]: 2 h
efflux ratio at 10 µM [6]: 5
AUC [4]: 0.95 µg·h/mL
Papp A→B at 10 µM [7]: 6.5 nm/s
Vd [5]: 1.1 L/kg

COc1cncc2c1[C@]1(O)[C@H](O)[C@H](CN(C)C)[C@@H](c3ccccc3)[C@]1(c1ccc(C#N)cc1)O2.Cl
solubility thermodynamic [8]: > 20 mg/mL

COc1cc2c(c(OC)n1)[C@]1(O)[C@H](O)[C@H](CN(C)C)[C@@H](c3ccccc3)[C@]1(c1ccc(C#N)cc1)O2 [ZOTATIFIN]
IC50 [1]: 0.0106 µM
half-life [9]: 10.9 h
clearance [2]: 2.88 L/h/kg
fraction unbound [10]: 0.365
Vd [11]: 12.1 L/kg
half-life [3]: 4.4 h
IC50 [12]: 0.218 µM
IC50 [13]: > 10 µM
IC50 [14]: 0.0138 µM
fraction unbound [15]: 0.252
AUC [4]: 0.39 µg·h/mL
fraction unbound [16]: 0.332
IC50 [17]: 0.371 µM
Papp A→B at 10 µM [7]: 25 nm/s
fraction unbound [18]: 0.266
Activity [19]: Non-Toxic
clearance [20]: < 0.744 L/h/kg
IC50 [21]: 0.092 µM
Activity [22]: Non-Toxic
IC50 [23]: 0.0015 µM
clearance [24]: 0.948 L/h/kg
half-life [25]: 4.39 h
clearance [26]: 2.9 L/h/kg
Vd [27]: 17.8 L/kg
half-life [28]: 14.9 h
inhibition in vivo at 1 mg/kg [29]: 122%
clearance [30]: 0.702 L/h/kg
Vd [5]: 13 L/kg
Vd [31]: 12.2 L/kg
fraction unbound [32]: 0.188
Vd [33]: 13 L/kg

COc1cncc2c1[C@]1(O)[C@H](O)[C@H](C(=O)N(C)C)[C@@H](c3ccccc3)[C@]1(c1ccc(C#N)cc1)O2.Cl
solubility thermodynamic [8]: 0.22 mg/mL
